Test system: Haemophilus influenzae serotype b
Assay: PRP production in liquid garden pea peptone-based culture medium as a function of heme source (sandwich ELISA on supernatant)
Assay type: cell-based
Settings: for Mean PRP / PRP in mg/l Assay 1 / PRP in mg/l Assay 2: garden pea medium, 16 h
Protocol: The production of PRP obtained after 16 hours of bacterial culture in liquid plant peptones-based culture media in which the heme source was either hemin or protoporphyrin IX of animal origin (porcine protoporphyrin) in disodium salt form, or protoporphyrin IX of purely synthetic origin in disodium salt form was compared. […] An enzymatic hydrolysate of garden pea peptone provided by Kerry (Hy pea 7404) and a wheat peptone provided by Organotechnie (19559) were tested at a concentration in the culture medium equivalent to 0.87 g/l of protein nitrogen. By reference to the current methods for the production of PRP, PRP production was also measured in a medium that contains a peptone of animal origin, such as casein hydrolysate (HAC) provided by Solabia at a concentration in the medium equivalent to 0.87 g/l with increased concentrations of hemin (see table III).
1.1) Preparation of the Media • 1.1.1. Stock solution of β-NAD (Fluka) at 1 g/l in water which was ultrafiltered and then sterilized by filtration through 0.22 μm. • 1.1.2. Stock solution of hemin (Sigma) at 0.25 g/l in water was ultrafiltered, comprising 5 ml of 25% aqueous ammonia (Cooper) to aid dissolution. The stock solution was sterilized by filtration through 0.22 μm. • 1.1.3. Stock solution of porcine protoporphyrin IX (Sigma) at 0.25 g/l in ultrafiltered water comprising 5 ml of 25% aqueous ammonia (Cooper) in order to facilitate the dissolution. The stock solution was sterilized by filtration through 0.22 μm. • 1.1.4. Stock solution of synthetic protoporphyrin IX at 0.25 g/l in ultrafiltered water comprising 5 ml of 25% aqueous ammonia (Cooper) in order to facilitate the dissolution. The stock solution was also heated to 80° C. in a water bath with stirring in order to complete the dissolution before being sterilized by filtration through 0.22 μm. The protoporphyrin IX, in disodium salt form, was synthesized according to the method described in the U.S. provisional patent application Ser. No. 12/057,574, filed Mar. 28, 2008 and application Ser. No. 60/943,735 and filed on Jun. 13, 2007 using the steps which are described in scheme 2. • The stock solutions of hemin and protoporphyrin IX were checked for their respective contents of active compounds after sterilizing filtration. The protoporphyrin IX and hemin contents were determined by Reversed Phase High Performance Liquid Chromatography (RP-HPLC). The chromatographic chain comprises a twin head pump module allowing the formation of a binary gradient, a programmable automatic injector, a diode array UV detector and a chromatographic column of the type Synergi 4 μm, Polar RP-80A (150×4.6) mm, ref 00F-4336-E0, Phenomenex. • The stock solution of hemin (Sigma) to be checked after filtration was diluted ⅓ in distilled water. The stock solutions of porcine protoporphyrin IX (Sigma) and of synthetic protoporphyrin IX to be checked after filtration were diluted ¼ in distilled water. In parallel, a calibration series was prepared in ammoniated water ranging from 0.025 g/l to 0.125 g/l of protoporphyrin IX from porcine protoporphyrin IX from Sigma (ref: 25838-5) and a calibration series ranging from 0.050 g/l to 0.150 g/l of hemin from hemin from Sigma (ref: H5533-256). The samples to be checked and the various solutions of the calibration series were injected in a volume of 20 μl (for the hemin solutions and samples) and of 5 μl (for the protoporphyrin IX solutions and samples). The initial mobile phase consisting of a volume for volume mixture of acetonitrile and 10 mM KH2PO4 pH 2.5 is set at a flow rate of 1 ml/min. A discontinuous gradient was then produced from this mobile phase in order to separate the molecules of interest which are detected at a wavelength of 400 nm. […]

## C=CC1=C(C)c2cc3[n-]c(cc4nc(cc5[n-]c(cc1n2)c(C)c5CCC(=O)O)C(CCC(=O)O)=C4C)c(C)c3C=C.[Cl-].[Fe+3] [Hemin, hemin, reference compound]
Hemin 11.8 μg/l
  Mean PRP: 4 mg/L
  PRP in mg/l Assay 1: 3.82 mg/L
  PRP in mg/l Assay 2: 3.79 mg/L
Hemin 59 μg/l
  Mean PRP: 7 mg/L
  PRP in mg/l Assay 1: 7.61 mg/L
  PRP in mg/l Assay 2: 7.13 mg/L
Hemin 118 μg/l
  Mean PRP: 20 mg/L
  PRP in mg/l Assay 1: 23.4 mg/L
  PRP in mg/l Assay 2: 17.5 mg/L
Hemin 295 μg/l
  Mean PRP: 48 mg/L
  PRP in mg/l Assay 1: 51.2 mg/L
  PRP in mg/l Assay 2: 45.4 mg/L
Hemin 590 μg/l
  Mean PRP: 84 mg/L
  PRP in mg/l Assay 1: 95.4 mg/L
  PRP in mg/l Assay 2: 72.9 mg/L
Hemin 1180 μg/l
  Mean PRP: 233 mg/L
  PRP in mg/l Assay 1: 234 mg/L
  PRP in mg/l Assay 2: 232 mg/L
Hemin 1770 μg/l
  Mean PRP: 210 mg/L
  PRP in mg/l Assay 1: 209 mg/L
  PRP in mg/l Assay 2: 211 mg/L
Hemin 2360 μg/l
  Mean PRP: 494 mg/L
  PRP in mg/l Assay 1: 505 mg/L
  PRP in mg/l Assay 2: 482 mg/L
Hemin 3540 μg/l
  Mean PRP: 142 mg/L
  PRP in mg/l Assay 1: 129 mg/L
  PRP in mg/l Assay 2: 154 mg/L
Garden pea peptone medium (FIG. 1)
  heme source concentration required for optimum / maximum PRP production: about 2500 μg/l
Plant peptone medium, heme source at 10 μg/l
  production of PRP (in words): insignificant
Plant peptone medium, heme source at 50 μg/l (FIGS. 1 and 2)
  production of PRP: ≤ 10 µg/L

— US8673617B2, “Culture medium for Haemophilus influenzae type B” (Sanofi Pasteur SA, priority 2007, dated 2014)
